According to patent US10865176B2, “Small molecule modulators of microRNA-34a” (The Chinese University of Hong Kong, priority 2012, dated 2020):
Marks after values point to notes of the source that are not given here.

Assays:
[1] = test system: non-tumorigenic human hepatocyte cell line MIHA; assay: MTT cell viability assay, MIHA; type: cell-based; conditions: different concentrations and time points
Experimental: (§1) Cell viability was measured by 3-(4,5-Dimethylthiazol-2-yl)-2,5-diphenyltetrazolium bromide (MTT) assay. 1×10^3 Cells were seeded in triplicate on a 96 well plate and were allowed to grow for indicated time points. At each time point a set of cells were incubated with 0.5 mg/ml MTT diluted in 1×PBS. After 2 to 4 h incubation, the MTT solution was removed. The insoluble MTT was dissolved in DMSO. Absorbance at 570 nm was measured by an ELISA plate reader.

miR-34a promoter = miR-34a promoter luciferase activity assay in HCC cells; type: cell-based, human; conditions: 10 μM
Experimental: (§2) The pMIR-REPORT™ luciferase plasmid (1 μg; Ambion) was sequentially double digested with Sac I and Hind III (10 units each, 50 μL reaction; NEB) and was gel purified. Double stranded insert DNA encoding the miR-34a binding site was synthesized through standard oligonucleotide synthesis methods. The sequences used were Forward: 5′z […]-3′ (SEQ ID NO:1) and Reverse: 5′: […]-3′ (SEQ ID NO:2). The insert was hybridized (heated to 95° C., and cooled to 4° C. over 30 min, then held at 4° C. for 60 min) and ligated with T4 ligase (200 units, 10 μL reaction, 1:10 vector/insert ratio; NEB) into the digested pMIR-REPORT™ luciferase vector. Positive colonies were selected by PCR colony screens, and the construction of the pMIR-REPORT™-miR-34a vector was confirmed by double enzyme digestion with NheI, MluI and Nhe I, Hind III (NEB). The luciferase reporter vector containing the miR-34a promoter was kindly provided by Prof. Mendell J T from Johns Hopkins University (21).
(§3) MiR-34a reporter, the luciferase reporter vector containing miR-34a promoter and the control vectors were transfected into HCC cells 12 h before compound treatment. The Renilla luciferase vector pRL-SV40 was co-transfected as an internal control. HCC cells were then treated with compound for 48-72 h. The luciferase activity was measured by Dual Luciferase Reporter Assay (Promega) with a Wallac VICTOR^3V luminometer. The ratio of firefly luciferase to Renilla expression was calculated for each of the triplicates.

HepG2 xenografted tumors = assay: CD31 immunohistochemical staining of HepG2 xenografted tumors (microvessel density); type: in vivo, nude mice; conditions: Rubone treated tumors; control group 67.50; p=0.0098
Experimental: Immunohistochemical staining was performed on HepG2 xenografted tumor tissues with CD31 specific antibody (Cat #: Y059114, Abcam, Cambridge, Mass.). Subcutaneous tumor tissue sections were incubated with anti-CD31 overnight at 4° C. Mean microvessel density was calculated by averaging vessel counts from three random fields per slide.

HepG2 cells = assay: MTT cell viability assay, HepG2; type: cell-based, human
Experimental: as §1

HepG2 xenografted tumor = assay: HepG2 xenografted nude mice model, tumor growth; type: in vivo; conditions: for Tumor growth inhibition (%) / Tumor weight (g): gavage once every two days; for Tumor growth inhibition (%): 24 d; for Tumor weight (g): day 24, mean (95% CI)
Experimental: (§4) Tumor volume was calculated as [(Length×Width×Height)[…]]. Treatment was continued for 24 d. Finally, all mice were sacrificed and tumors were excised. Tumor weight was recorded.

miR-34a [2] = assay: qRT-PCR of pri-miR-34a and miR-34a in xenografted tumors; type: in vivo, nude mice; conditions: excised tumors after 24 d gavage
Experimental: (§5) Total RNA from cell cultures and HCC xenograft tumors were extracted using Trizol (Invitrogen) according to manufacturer's protocols. Total RNAs were dissolved into nuclease-free ddH2O. For protein extraction, cells and HCC xenograft tumors were lysed in 1×RIPA buffer with 1 mM PMSF and 1× complete protease inhibitor cocktail (Roche, Indianapolis, Ind.). Both RNA and protein were stored at −80° C.
(§6) Total RNA was reversely transcribed into cDNAs using High Capacity cDNA Reverse Transcription Kit (Applied Biosystems, Foster city, CA, USA) and nude RT kit (Invitrogen) individually. qRT-PCR was performed using SYBR Green PCR master mix (TaKaRa, Dalian, China). GAPDH was used as an endogenous control. For measuring miR-34a expression level, qPCR was performed by using SYBR Green PCR master mixture (Invitrogen) and U6 was used as the internal control. All samples were normalized to internal controls and fold changes were calculated by relative quantification (2^−ΔΔct).
as §4

[3] = test system: miR-7a, miR-21, miR-23a, miR-29c, miR-34c, miR-219, miR-145, miR-192, miR-215; assay: qRT-PCR of a panel of other miRNAs in Huh7 cells; type: cell-based, human; conditions: 10 μM, 48 h
Experimental: as §5, §6

PLC cells = assay: MTT cell viability assay, PLC/PRF/5; type: cell-based, human
Experimental: as §1

miR-34a [4] = assay: qRT-PCR of primary and mature miR-34a in HCC cells; type: cell-based, human; conditions: for increased miR-34a level by Rubone after p53 knockdown: 2 μM siRNAs targeting p53, 10 μM Rubone; for primary and mature miR-34a levels: 10 μM, 48 h
Experimental: as §5, §6

Huh7 cells = assay: MTT cell viability assay, Huh7; type: cell-based, human; conditions: Huh7, 10 μM
Experimental: as §1

miR-34a [5] = assay: miR-34a reporter luciferase assay in Huh7 cells; type: cell-based, human
Experimental: as §2
Huh7 cells were seeded into 96-well plates 12 h prior to transfection. MiR-34a reporter and the control vector were respectively co-transfected with Renilla luciferase pRL-SV40 into Huh7 cells. All transfections were performed in triplicate. The cells were incubated at 37° C. for 4 h followed by the replacement of transfection media with standard DMEM growth media with 10 μM of the natural products library (NPL) compounds (Tim Tec; 0.1% DMSO final concentration). This library contains 640 compounds including natural products and their derivatives. After 48 h of incubation, the media was removed and cells were lysed and the luciferase signals were measured by luciferase assay as described below.
as §3

`COc1cc(O)c(C(=O)/C=C/c2cc(OC)c(OC)cc2OC)c(OC)c1` [Rubone, 2′-Hydroxy-2,4,4′,5,6′-pentamethoxychalcone] was tested, and the “growth rate (MTT)” value [1] was “little changes in the growth rate”, the miR-34a promoter activity (miR-34a promoter; Bel-7404 (p53 mutant)) was “increased” and the miR-34a promoter activity (miR-34a promoter; Hep3B (p53 deletion)) was “no change”. For the same compound, the miR-34a promoter activity (miR-34a promoter; HepG2 (p53 wild type)) was “increased”, the “tube score mean (microvessels, CD31 staining)” value (HepG2 xenografted tumors) was 12.50 and the “growth inhibitory effect of Rubone after p53 knockdown (MTT)” value (HepG2 cells; HepG2, 2 μM siRNAs targeting p53, 10 μM Rubone) was “significantly reversed by knocking down p53”. For the same compound, the “cell growth (MTT)” value (HepG2 cells; HepG2, 10 μM) was “significantly inhibited the growth”, the “Tumor growth inhibition (%)” value (HepG2 xenografted tumor; 20 mg/kg) was 78.27% and the “Tumor weight (g)” value (HepG2 xenografted tumor; 20 mg/kg) was 0.256 (95% CI = 0.08 − 0.42)** g. The “Tumor growth inhibition (%)” value (HepG2 xenografted tumor; 50 mg/kg) was 89.64%, the “Tumor weight (g)” value (HepG2 xenografted tumor; 50 mg/kg) was 0.122 (95% CI = 0.067 − 0.18)** # g and the “tumor growth inhibition compared with Sorafenib” value (HepG2 xenografted tumor; same dosage of 50 mg/kg, p=0.047 vs. sorafenib treated group) was “stronger tumor growth inhibition than Sorafenib”. For the same compound, the “pri-miR-34a and miR-34a levels in xenografted tumors” value (miR-34a [2]) was “up-regulated”, the “expression of other p53 regulated miRNAs (miR-34c, miR-145, miR-192, miR-215)” value [3] was “did not change” and the “expressions of miR-7a, miR-21, miR-23a, miR-29c, miR-34c and miR-219” value [3] was “not affected”. The “cell growth (MTT)” value (PLC cells; 10 μM) was “significantly inhibited the growth”, the “effect of miR-34a inhibitors on growth inhibition by Rubone (MTT)” value (PLC cells; 10 μM Rubone with 2 μM miR-34a inhibitors, 72 h) was “reversed the growth inhibitory effect” and the “effect of miR-34a mimics on chemosensitivity to Rubone (MTT)” value (PLC cells; 10 μM Rubone with 2 μM miR-34a mimics, 72 h) was “enhanced the chemosensitivity”. The “increased miR-34a level by Rubone after p53 knockdown” value (miR-34a [4]; Bel-7404 cells) was “significantly reversed by p53 knockdown”, the “primary and mature miR-34a levels” value (miR-34a [4]; Hep3B cells (p53 deleted)) was “no change” and the “primary and mature miR-34a levels” value (miR-34a [4]; HepG2 cells (wild-type p53)) was “significantly increased”. The “increased miR-34a level by Rubone after p53 knockdown” value (miR-34a [4]; HepG2 cells) was “significantly reversed by p53 knockdown”, the “primary and mature miR-34a levels” value (miR-34a [4]; Huh7 cells (mutant p53)) was “significantly increased” and the “cell growth (MTT)” value (Huh7 cells) was “significantly inhibited the growth”. For the same compound, the “function as miR-34a activator, re-assayed in triplicate with miR-34a reporter system” value (miR-34a [5]) was “functions as the miR-34a activators are confirmed”, the IC50 (miR-34a [5]; Homo sapiens, Huh-7, 48 h) was 3.8 µM and the “luciferase activities of miR-34a reporter” value (miR-34a [5]; indicated concentrations, 48 h) was “inhibited the luciferase activities in a dose-dependent manner”.
